{"source": "patent US20140228440A1", "about": "“1-AMINO-ALKYLCYCLOHEXANE DERIVATIVES FOR THE TREATMENT OF INFLAMMATORY SKIN DISEASES” (MERZ PHARMA GmbH & CO. KGaA, priority 2008, published 2014)", "assay_type_in_all_cases": "cell-based", "key": {"Propionibacterium acnes": {"test_system": "Propionibacterium acnes", "test": "Log reduction assay", "details": "3.125% solution", "protocol": "In order to determine the efficacy of Neramexane against a specific microorganism population (i.e., Propionibacterium acnes), a log reduction assay is performed. The organisms are prepared by inoculating the fluid thioglycolate (FTM). The microorganism is then incubated at 35.2±2.5° C. for 24 hours. The microbial suspension is adjusted to approximately 107 to 108 colony forming units (CFU) per mL and labeled as the stock suspension. […] Then […] is transferred into 11 mL of DI water to prepare a 3.125% solution. This solution is then inoculated with the microorganism and tested at time intervals of 30 seconds, 1 minute, and 5 minutes. One milliliter from each dilution is spread plated in duplicate onto tryptic soy agar with 5% sheep blood. The plates are incubated anaerobically at 35.2±2.5° C. for a minimum of 48 hours. The same procedure is repeated for the Phosphate Buffer Saline control. After the incubation period, all plates are counted to determine the number of microorganisms remaining at each time point. The concentration of each microorganism for the control and product is calculated for each interval. The log reduction is calculated to determine the change (reduction or increase) of the microorganism population relative to a starting inoculum. The minimum required bactericidal concentration is defined as a 3 log reduction from the initial inoculum."}, "[1]": {"test_system": "Propionibacterium acnes (ATCC 11828)", "test": "Quantitative suspension assay (bactericidal activity)", "details": "pH 5.5", "protocol": "1.0 ml of the bacterial test suspension (microbial count: 1.5−5.0×10^8 cfu/ml) and 1.0 ml distilled water is added to 8.0 ml of the product test solution. The stopwatch is started. At the end of the exposure time, 0.1 ml of the test mixture is added to 50 ml rinsing liquid (=test neutralization mixture, TNM, 10°). Two dilutions of the TNM are prepared by pipetting […] of TNM to 9.0 ml of tryptone-NaCl (represents a dilution 10^−2 of TNM before filtration) resp. 50 μl of TNM to 9.0 ml of tryptone-NaCl (represents a dilution 10^−3 of TNM before filtration). The TNM (in duplicate) and each of the dilutions are transferred to a membrane filter device fitted with a membrane filter (0.45 μm) and filtered immediately. Subsequently, the filter is washed with 150 ml distilled water. The membranes are transferred to agar plates. After incubation under appropriate conditions, colonies are counted and reported.\nNeramexane-mesylate is tested at 4 different concentrations (w/w 0.1%, 0.5%, 2.0%, 5.0%) to assess its bactericidal activity against Propionibacterium acnes (ATCC 11828). In addition to the effect of the concentration of Neramexane, the relevance of the contact time with the bacterias is assessed at 4 different incubation times (5 min, 30 min, 6 h, 24 h).\nAfter the desired incubation time, the complete elimination of the test compound from the assay is ensured by membrane filtration. Bacterial suspensions with a microbial count ranging from 1.5−5.0×10^8 cfu/ml are used. All assays are performed at the skin relevant pH of 5.5.\nThe read out is reduction of the bacterial number in the assay, expressed as log-reduction. This reduction of the bacterial count is correlated to the ability of a compound to kill the bacteria, thus, corresponding to its MBC value. A >5-fold log reduction is required for a surface-disinfection compound and a >3-fold log reduction for a hand-disinfection compound."}, "[2]": {"test_system": "Staphylococcus aureus ATCC 6538", "test": "MIC by the agar dilution method", "details": "pH 5.5", "protocol": "(§1) To assess the anti-microbial potency of Neramexane against bacteria strains which are relevant for atopic dermatitis and localized skin infections (“impetigo”), the minimal inhibitory concentration (MIC) against the following bacteria is established:\n(§2) The MICs of the samples are determined using the agar dilution method based on DIN 58940. Petri dishes of 5.5 cm diameter are poured with 2.5 ml of freshly prepared Mueller-Hinton agar 2-fold concentrated (Merck company, Cat-No 1.05437), pH 5.5, maintained in liquid form at 50° C., to which the sample dilutions at various concentrations has been added at 50.0 vol.-%.\n(§3) Neramexane-Mesylate is tested in the concentration range of 6.25-1*10^−2%. All test solutions are adjusted to pH 5.5.\n(§4) For inoculation, 1 μl of the respective germ suspension is placed on the centre of each agar plate. After drying, inoculated plates are incubated at 36.0±2.0° C. The basis for the length of incubation period is the respective growth control cultivated in parallel.\n(§5) The test microbe suspension is prepared by inoculating a few individual colonies of the respective bacteria into sterile saline solution until a turbidity corresponding to the McFarland standard 1.0 (approximately 10^8 cfu/ml) is reached. After that, the test microbe suspensions are further diluted 1:10 with saline solution and the microbial counts (see Table 33) are determined by the surface spread method using a spiral plater.\n(§6) The agar plates are incubated under the conditions given in Table 34 and subsequently evaluated. The MIC-values as given represent the lowest concentration of the active substance at which there is no macroscopically visible growth. Minimal, barely visible growth or few small individual colonies are evaluated as inhibition.\n(§7) The growth of bacteria is indicated for the duplicate plates by a +(i.e., growth) or a −(i.e., no growth), +− indicates weak growth on both plates or growth on one plate and no growth on the other plate. Both bacteria-strains show appropriate growth on the respective control plate not containing any test compound. No influence of the used diluent (Aqua purifacata) is observed. No contamination is observed on the control-plates. In general it has to be considered that values determined by the used method can vary by a factor of 2 (for 1:2 dilutions)."}, "[3]": {"test_system": "Streptococcus pyogenes ATCC 12344", "test": "MIC by the agar dilution method", "details": "pH 5.5", "protocol": "as §1, §2, §3, §4, §5, §6, §7"}}}
{"compound": "CC1(C)CC(C)(C)CC(C)(N)C1.CS(=O)(=O)O", "note": "[Neramexane mesylate]", "values": [{"measurement": "% Reduction", "setting": "Propionibacterium acnes; exposure time 30 sec", "value": 91.6, "unit": "%"}, {"measurement": "Concentration of Organism (CFU/mL)", "setting": "Propionibacterium acnes; exposure time 30 sec", "value": "1.8E+04", "unit": "CFU/mL"}, {"measurement": "Log Reduction", "setting": "Propionibacterium acnes; exposure time 30 sec", "value": 1.1}, {"measurement": "% Reduction", "setting": "Propionibacterium acnes; exposure time 1 min", "value": 79.0, "unit": "%"}, {"measurement": "Concentration of Organism (CFU/mL)", "setting": "Propionibacterium acnes; exposure time 1 min", "value": "4.4E+04", "unit": "CFU/mL"}, {"measurement": "Log Reduction", "setting": "Propionibacterium acnes; exposure time 1 min", "value": 0.7}, {"measurement": "% Reduction", "setting": "Propionibacterium acnes; exposure time 5 min", "value": 100.0, "unit": "%"}, {"measurement": "Concentration of Organism (CFU/mL)", "setting": "Propionibacterium acnes; exposure time 5 min", "value": "<10", "unit": "CFU/mL"}, {"measurement": "Log Reduction", "setting": "Propionibacterium acnes; exposure time 5 min", "value": 4.3}, {"measurement": "log-reduction", "setting": "[1]; 0.1%, contact time 5 min", "value": "<1.41"}, {"measurement": "log-reduction", "setting": "[1]; 0.1%, contact time 30 min", "value": "<1.41"}, {"measurement": "log-reduction", "setting": "[1]; 0.1%, contact time 6 h", "value": "<1.41"}, {"measurement": "log-reduction", "setting": "[1]; 0.1%, contact time 24 h", "value": "<1.41"}, {"measurement": "log-reduction", "setting": "[1]; 0.5%, contact time 5 min", "value": "<1.41"}, {"measurement": "log-reduction", "setting": "[1]; 0.5%, contact time 30 min", "value": "<1.41"}, {"measurement": "log-reduction", "setting": "[1]; 0.5%, contact time 6 h", "value": 2.6}, {"measurement": "log-reduction", "setting": "[1]; 2.0%, contact time 5 min", "value": "<1.41"}, {"measurement": "log-reduction", "setting": "[1]; 2.0%, contact time 6 h", "value": ">5.48"}, {"measurement": "log-reduction", "setting": "[1]; 2.0%, contact time 24 h", "value": ">5.48"}, {"measurement": "log-reduction", "setting": "[1]; 5.0%, contact time 5 min", "value": 4.33}, {"measurement": "log-reduction", "setting": "[1]; 5.0%, contact time 30 min", "value": ">5.48"}, {"measurement": "log-reduction", "setting": "[1]; 5.0%, contact time 6 h", "value": ">5.48"}, {"measurement": "log-reduction", "setting": "[1]; 5.0%, contact time 24 h", "value": ">5.48"}, {"measurement": "growth of bacteria on duplicate plates (MIC determination)", "setting": "[2]; final concentration 0.01 %", "value": "+ +"}, {"measurement": "growth of bacteria on duplicate plates (MIC determination)", "setting": "[2]; final concentration 0.04 %", "value": "+ +"}, {"measurement": "growth of bacteria on duplicate plates (MIC determination)", "setting": "[2]; final concentration 0.08 %", "value": "+ +"}, {"measurement": "growth of bacteria on duplicate plates (MIC determination)", "setting": "[2]; final concentration 0.16 %", "value": "+ +"}, {"measurement": "growth of bacteria on duplicate plates (MIC determination)", "setting": "[2]; final concentration 0.31 %", "value": "+ +"}, {"measurement": "growth of bacteria on duplicate plates (MIC determination)", "setting": "[2]; final concentration 0.63 %", "value": "+ −"}, {"measurement": "growth of bacteria on duplicate plates (MIC determination)", "setting": "[2]; final concentration 1.56 %", "value": "− −"}, {"measurement": "growth of bacteria on duplicate plates (MIC determination)", "setting": "[2]; final concentration 2.50 %", "value": "− −"}, {"measurement": "growth of bacteria on duplicate plates (MIC determination)", "setting": "[2]; final concentration 3.13 %", "value": "− −"}, {"measurement": "growth of bacteria on duplicate plates (MIC determination)", "setting": "[2]; final concentration 6.25 %", "value": "− −"}, {"measurement": "MIC", "setting": "[2]", "value": 1.56, "unit": "%"}, {"measurement": "growth of bacteria on duplicate plates (MIC determination)", "setting": "[3]; final concentration 0.01 %", "value": "+ +"}, {"measurement": "growth of bacteria on duplicate plates (MIC determination)", "setting": "[3]; final concentration 0.04 %", "value": "+ +"}, {"measurement": "growth of bacteria on duplicate plates (MIC determination)", "setting": "[3]; final concentration 0.08 %", "value": "− −"}, {"measurement": "growth of bacteria on duplicate plates (MIC determination)", "setting": "[3]; final concentration 0.16 %", "value": "− −"}, {"measurement": "growth of bacteria on duplicate plates (MIC determination)", "setting": "[3]; final concentration 0.31 %", "value": "− −"}, {"measurement": "growth of bacteria on duplicate plates (MIC determination)", "setting": "[3]; final concentration 0.63 %", "value": "− −"}, {"measurement": "growth of bacteria on duplicate plates (MIC determination)", "setting": "[3]; final concentration 1.56 %", "value": "− −"}, {"measurement": "growth of bacteria on duplicate plates (MIC determination)", "setting": "[3]; final concentration 2.50 %", "value": "− −"}, {"measurement": "growth of bacteria on duplicate plates (MIC determination)", "setting": "[3]; final concentration 3.13 %", "value": "− −"}, {"measurement": "growth of bacteria on duplicate plates (MIC determination)", "setting": "[3]; final concentration 6.25 %", "value": "− −"}, {"measurement": "MIC", "setting": "[3]", "value": 0.08, "unit": "%"}]}
